In one assay the target is T1, human Nav1.3 channels (Homo sapiens, UniProt Q9NY46).
T1 construct: expressed in transfected cells; host or cells: HEK293
As to the kind of experiment: FRET assay, human Nav1.3 (EFS on FDSS). It is filed as cell-based. The conditions noted are these: HEK293 cells expressing human Nav1.3, read-out: IC50 against Nav1.3. Here is the method: The inhibitory activities of compounds against voltage gated sodium channels are determined by methodology well known in the art.
The ability of the aryl substituted carboxamide derivatives of the formula (I) to inhibit the NaV1.3, Nav1.7 and Nav1.5 channels is measured by Fluorescence Resonance Energy Transfer (FRET) assay and electrophysiology assay described below.
This screen is used to determine the effects of compounds on human Nav1.3, human Nav1.7, and human Nav1.5 channels, utilising electrical field stimulation (EFS) system in 96-well plate format on FDSS (Hamamatsu Photonics) platform. The change of membrane potential is monitored with FRET dye pair, oxonol (DiSBAC2(3)) and coumarin (CC2-DMPE).
Each HEK293 cells expressing human Nav1.3 channels and HEK293 cells expressing human Nav1.5 channels are grown in T225 flasks, in a 5% CO2 humidified incubator to about 80% confluence. Media composition consists of Dulbecco's Modified Eagle Medium (high glucose), 10% FCS, 100 units/mL Penicillin, 100 microgram/mL Streptomycin and 500 microgram/mL Geneticine.
Protocol: • Seed each cell lines (1×10^5 cells/well) into poly-D-lysine coated 96-well plates prior to experimentation. • Incubate at 37° C. in 5% CO2 for 24 hours. • Wash each well with assay buffer (140 mM NaCl, 4.5 mM KCl, 10 mM D-Glucose, 2 mM CaCl2, 1 mM MgCl2, 10 mM HEPES, pH 7.4 adjusted with NaOH) twice. • Add 1st loading solution containing 10 microM CC2-DMPE and 0.06% Pluronic F-127 in assay buffer. • Incubate the plate at room temperature in dark for 1 hour. • Remove 1st loading solution and added 2nd loading solution containing 15 microM DiSBAC2(3), 0.555 mM VABSC-1 and 0.004% Pluronic F-127 in assay buffer. • Place the plate under the dark at room temperature for 25 minutes. • Add compound solutions into the assay plate. • Set the assay plate in FDSS and placed an EFS device on the plate. • Measure EFS-induced fluorescent response by FDSS.
The data are analyzed and reported as normalized ratios of intensities measured at […]. The process of calculating these ratios is performed as follows:
This analysis is performed using a computerized specific program designed for FDSS generated data. Fluorescence ratio values are plotted using XLfit to determine an IC50 value for each compound.

Another assay concerns the target T2, human Nav1.7 channels (Homo sapiens, UniProt Q15858).
T2 construct: expressed in transfected cells; host or cells: CHO
As to the kind of experiment: FRET assay, human Nav1.7 (EFS on FDSS). It is filed as cell-based. The conditions noted are these: CHO cells expressing human Nav1.7, read-out: IC50 against Nav1.7. Summed up: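 IC50 was derived from normalized 440 nm fluorescence ratios of the EFS-evoked membrane-potential response read on FDSS. Recombinant CHO cells were sequentially dye-loaded with coumarin/oxonol FRET pair at room temperature in pH 7.4 buffer before compound addition.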

T2 sequence (Q15858 whole entry): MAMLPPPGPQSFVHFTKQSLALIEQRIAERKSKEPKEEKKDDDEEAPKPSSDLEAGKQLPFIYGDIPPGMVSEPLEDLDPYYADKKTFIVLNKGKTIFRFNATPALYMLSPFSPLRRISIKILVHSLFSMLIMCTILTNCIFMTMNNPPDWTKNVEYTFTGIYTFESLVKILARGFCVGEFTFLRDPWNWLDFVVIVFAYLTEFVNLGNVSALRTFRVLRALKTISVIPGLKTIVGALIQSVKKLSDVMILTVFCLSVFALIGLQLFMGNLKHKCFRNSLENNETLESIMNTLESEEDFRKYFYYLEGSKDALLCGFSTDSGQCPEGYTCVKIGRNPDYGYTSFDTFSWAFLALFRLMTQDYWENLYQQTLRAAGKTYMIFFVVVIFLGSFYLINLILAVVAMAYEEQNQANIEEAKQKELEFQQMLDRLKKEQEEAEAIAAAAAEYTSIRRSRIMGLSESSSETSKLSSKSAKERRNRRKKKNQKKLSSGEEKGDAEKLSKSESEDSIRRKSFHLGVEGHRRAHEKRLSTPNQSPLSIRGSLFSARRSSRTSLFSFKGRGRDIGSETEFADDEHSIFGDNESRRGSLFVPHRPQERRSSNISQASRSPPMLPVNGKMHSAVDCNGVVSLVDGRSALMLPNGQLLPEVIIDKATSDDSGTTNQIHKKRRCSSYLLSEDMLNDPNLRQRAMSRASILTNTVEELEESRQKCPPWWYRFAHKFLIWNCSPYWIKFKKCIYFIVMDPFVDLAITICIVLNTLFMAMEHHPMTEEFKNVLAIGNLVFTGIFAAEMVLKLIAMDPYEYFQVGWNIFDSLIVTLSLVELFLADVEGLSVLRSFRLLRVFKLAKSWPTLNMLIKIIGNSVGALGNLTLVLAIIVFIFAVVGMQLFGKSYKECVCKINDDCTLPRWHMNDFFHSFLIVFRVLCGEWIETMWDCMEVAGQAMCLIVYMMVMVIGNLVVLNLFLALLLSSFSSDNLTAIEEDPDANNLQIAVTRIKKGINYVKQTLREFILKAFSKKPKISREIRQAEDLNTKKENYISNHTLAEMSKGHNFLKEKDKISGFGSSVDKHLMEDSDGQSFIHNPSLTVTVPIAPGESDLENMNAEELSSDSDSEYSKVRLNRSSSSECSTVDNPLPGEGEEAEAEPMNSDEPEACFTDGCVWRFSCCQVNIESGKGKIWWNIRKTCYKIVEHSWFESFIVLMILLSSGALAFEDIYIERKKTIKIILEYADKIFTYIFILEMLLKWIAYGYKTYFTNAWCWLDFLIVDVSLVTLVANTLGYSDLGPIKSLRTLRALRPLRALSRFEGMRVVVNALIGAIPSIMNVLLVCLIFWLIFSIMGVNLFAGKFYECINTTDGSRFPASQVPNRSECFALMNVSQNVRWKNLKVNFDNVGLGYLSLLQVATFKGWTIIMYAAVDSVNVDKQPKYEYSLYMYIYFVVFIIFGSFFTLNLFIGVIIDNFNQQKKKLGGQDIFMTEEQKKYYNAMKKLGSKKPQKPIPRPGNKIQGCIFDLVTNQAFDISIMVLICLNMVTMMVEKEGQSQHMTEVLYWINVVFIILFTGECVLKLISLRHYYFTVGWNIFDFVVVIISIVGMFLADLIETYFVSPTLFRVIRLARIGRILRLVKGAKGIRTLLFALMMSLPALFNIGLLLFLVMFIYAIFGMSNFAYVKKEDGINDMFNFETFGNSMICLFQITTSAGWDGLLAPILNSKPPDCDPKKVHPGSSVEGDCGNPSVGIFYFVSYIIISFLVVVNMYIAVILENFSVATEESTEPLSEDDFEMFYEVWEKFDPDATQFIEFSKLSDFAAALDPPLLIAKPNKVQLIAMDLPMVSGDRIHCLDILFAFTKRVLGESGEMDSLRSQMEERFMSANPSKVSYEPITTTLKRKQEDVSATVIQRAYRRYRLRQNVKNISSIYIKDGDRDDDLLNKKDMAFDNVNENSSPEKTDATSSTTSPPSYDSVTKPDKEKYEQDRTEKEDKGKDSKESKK
T1 sequence (Q9NY46 whole entry): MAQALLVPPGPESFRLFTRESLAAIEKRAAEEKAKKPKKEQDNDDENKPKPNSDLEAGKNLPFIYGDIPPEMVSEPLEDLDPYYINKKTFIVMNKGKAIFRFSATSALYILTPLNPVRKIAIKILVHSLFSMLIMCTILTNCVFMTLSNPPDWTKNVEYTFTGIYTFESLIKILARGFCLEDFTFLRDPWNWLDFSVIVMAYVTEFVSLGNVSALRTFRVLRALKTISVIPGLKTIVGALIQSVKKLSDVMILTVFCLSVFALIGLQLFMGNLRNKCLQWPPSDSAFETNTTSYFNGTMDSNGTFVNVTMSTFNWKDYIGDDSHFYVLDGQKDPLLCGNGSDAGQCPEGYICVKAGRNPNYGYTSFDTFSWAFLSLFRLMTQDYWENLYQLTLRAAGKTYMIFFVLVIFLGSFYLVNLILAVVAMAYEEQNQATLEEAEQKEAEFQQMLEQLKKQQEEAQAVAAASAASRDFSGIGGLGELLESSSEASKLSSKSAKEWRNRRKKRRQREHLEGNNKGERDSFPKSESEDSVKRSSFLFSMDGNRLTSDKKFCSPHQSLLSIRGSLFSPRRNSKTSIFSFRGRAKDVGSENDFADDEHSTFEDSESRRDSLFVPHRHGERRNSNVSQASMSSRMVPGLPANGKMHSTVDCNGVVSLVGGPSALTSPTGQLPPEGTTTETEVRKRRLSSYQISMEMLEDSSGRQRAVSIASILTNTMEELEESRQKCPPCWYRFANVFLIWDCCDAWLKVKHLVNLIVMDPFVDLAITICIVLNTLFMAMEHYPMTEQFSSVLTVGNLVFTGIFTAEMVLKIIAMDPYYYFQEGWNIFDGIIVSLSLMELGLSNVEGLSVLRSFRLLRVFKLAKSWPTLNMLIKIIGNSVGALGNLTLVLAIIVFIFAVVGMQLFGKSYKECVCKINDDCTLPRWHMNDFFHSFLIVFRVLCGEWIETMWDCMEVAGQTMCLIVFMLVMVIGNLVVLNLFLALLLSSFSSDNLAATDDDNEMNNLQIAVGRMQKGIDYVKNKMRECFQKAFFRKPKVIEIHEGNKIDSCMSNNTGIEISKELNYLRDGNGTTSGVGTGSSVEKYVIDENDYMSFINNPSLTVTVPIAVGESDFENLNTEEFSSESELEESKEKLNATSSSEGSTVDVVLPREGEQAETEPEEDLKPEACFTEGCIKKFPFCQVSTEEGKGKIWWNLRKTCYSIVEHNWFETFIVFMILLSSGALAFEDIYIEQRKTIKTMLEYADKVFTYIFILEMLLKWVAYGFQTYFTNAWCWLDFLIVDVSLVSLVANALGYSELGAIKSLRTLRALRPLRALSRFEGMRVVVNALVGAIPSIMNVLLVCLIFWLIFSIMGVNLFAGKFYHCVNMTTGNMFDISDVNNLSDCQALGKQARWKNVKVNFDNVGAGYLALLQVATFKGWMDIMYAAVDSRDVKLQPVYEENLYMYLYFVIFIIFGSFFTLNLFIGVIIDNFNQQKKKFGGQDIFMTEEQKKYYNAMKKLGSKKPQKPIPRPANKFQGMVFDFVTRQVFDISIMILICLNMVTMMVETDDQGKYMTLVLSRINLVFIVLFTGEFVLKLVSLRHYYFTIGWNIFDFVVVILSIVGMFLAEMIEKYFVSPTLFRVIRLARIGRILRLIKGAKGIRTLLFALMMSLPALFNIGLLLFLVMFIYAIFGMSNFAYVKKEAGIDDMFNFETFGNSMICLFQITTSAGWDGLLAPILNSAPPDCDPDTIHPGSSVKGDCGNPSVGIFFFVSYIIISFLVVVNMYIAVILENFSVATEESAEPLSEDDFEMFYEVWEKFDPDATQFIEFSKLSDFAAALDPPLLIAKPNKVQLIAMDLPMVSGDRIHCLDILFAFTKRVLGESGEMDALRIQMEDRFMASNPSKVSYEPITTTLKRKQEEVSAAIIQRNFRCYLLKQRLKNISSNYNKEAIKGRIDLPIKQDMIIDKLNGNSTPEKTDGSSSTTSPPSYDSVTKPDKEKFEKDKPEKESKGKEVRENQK

The term IC50 denotes the concentration at which inhibition is half-maximal. On to `CC(C)C(=O)Nc1cc(C(=O)NC(C)c2ccc(OCC(F)(F)F)nc2)ccn1` (single isomer, unassigned) [Example 8, 2-isobutyramido-N-(1-(6-(2,2,2-trifluoroethoxy)pyridin-3-yl)ethyl)isonicotinamide], for which the IC50 at human Nav1.3 channels and on human Nav1.7 channels was less than 1000 nM in each case.
Take `Cc1cc(C(=O)NC(C)c2ccc(OCC(F)(F)F)nc2)cc(NC(=O)C(C)C)n1` (single isomer, unassigned) [Example 62, 2-isobutyramido-6-methyl-N-(1-(6-(2,2,2-trifluoroethoxy)pyridin-3-yl)ethyl)isonicotinamide]: the IC50 on human Nav1.3 channels and on human Nav1.7 channels was less than 1000 nM throughout.
Regarding `CCC(=O)Nc1cc(C(=O)NC(C)c2cnc(OCC(F)(F)F)c(Cl)c2)ccn1` (single isomer, unassigned) [Example 69, N-(1-(5-chloro-6-(2,2,2-trifluoroethoxy)pyridin-3-yl)ethyl)-2-propionamidoisonicotinamide], the IC50 on human Nav1.3 channels and at human Nav1.7 channels was less than 1000 nM throughout.
Take `CC(=O)Nc1cc(C(=O)NC(C)c2cnc(OCC(F)(F)F)c(C)c2)ccn1` (single isomer, unassigned) [Example 85, 2-acetamido-N-(1-(5-methyl-6-(2,2,2-trifluoroethoxy)pyridin-3-yl)ethyl)isonicotinamide]: the IC50 on human Nav1.3 channels and on human Nav1.7 channels was less than 1000 nM in each case.
As to `CCC(=O)Nc1cc(C(=O)NC(C)c2cnc(OCC(F)(F)F)c(C)c2)ccn1` (single isomer, unassigned) [Example 87, N-(1-(5-methyl-6-(2,2,2-trifluoroethoxy)pyridin-3-yl)ethyl)-2-propionamidoisonicotinamide], the IC50 on human Nav1.3 channels and on human Nav1.7 channels was less than 1000 nM each time.
Regarding `Cc1cc(C(C)NC(=O)c2ccnc(NC(=O)C3CC3)c2)cnc1OCC(F)(F)F` (single isomer, unassigned) [Example 89, 2-(cyclopropanecarboxamido)-N-(1-(5-methyl-6-(2,2,2-trifluoroethoxy)pyridin-3-yl)ethyl)isonicotinamide], the IC50 on human Nav1.3 channels and on human Nav1.7 channels was less than 1000 nM each time.
Regarding `CCC(=O)Nc1cc(C(=O)N[C@H](C)c2cccc(C(F)(F)F)c2)cc(C)n1` (single isomer, unassigned) [Example 126], the IC50 on human Nav1.3 channels and on human Nav1.7 channels was less than 1000 nM in each case.
As for `CCC(=O)Nc1cc(C(=O)NC(C)c2cnc(OCC(F)(F)F)c(Cl)c2)cc(C)n1` (single isomer, unassigned) [Example 130, N-(1-(5-chloro-6-(2,2,2-trifluoroethoxy)pyridin-3-yl)ethyl)-2-methyl-6-propionamidoisonicotinamide], the IC50 at human Nav1.3 channels and at human Nav1.7 channels was less than 1000 nM in each case.
Take `CCC(=O)Nc1cc(C(=O)NC(C)c2cnc(OCC(F)(F)F)c(C)c2)cc(C)n1` (single isomer, unassigned) [Example 132, 2-methyl-N-(1-(5-methyl-6-(2,2,2-trifluoroethoxy)pyridin-3-yl)ethyl)-6-propionamidoisonicotinamide]: the IC50 on human Nav1.3 channels and on human Nav1.7 channels was less than 1000 nM throughout.
With `CCC(=O)Nc1cc(C(=O)NC(C)c2cccc(OC(F)(F)F)c2)cc(C)n1` (single isomer, unassigned) [Example 134, 2-methyl-6-propionamido-N-(1-(3-(trifluoromethoxy)phenyl)ethyl)isonicotinamide], the IC50 at human Nav1.3 channels and on human Nav1.7 channels was less than 1000 nM in each case.
In the case of `Cc1cc(C(=O)NCc2cnc(OCC(F)F)c(C)c2)cc(NC(=O)C(C)C)n1` [Example 743, N-((6-(2,2-difluoroethoxy)-5-methylpyridin-3-yl)methyl)-2-isobutyramido-6-methylisonicotinamide], the IC50 on human Nav1.3 channels was less than 1000 nM.
On to `CC(=O)Nc1cc(C(=O)NCc2cccc(OC(F)(F)F)c2F)ccn1` [Example 746, 2-acetamido-N-(2-fluoro-3-(trifluoromethoxy)benzyl)isonicotinamide], for which the IC50 on human Nav1.3 channels was less than 1000 nM.
As for `CCC(=O)Nc1cc(C(=O)NCc2cccc(OC(F)(F)F)c2F)ccn1` [Example 747, N-(2-fluoro-3-(trifluoromethoxy)benzyl)-2-propionamidoisonicotinamide], at human Nav1.3 channels, the IC50 is less than 1000 nM.
Still for that read-out and setting: next, `O=C(NCc1cccc(OC(F)(F)F)c1F)c1ccnc(NC(=O)C2CC2)c1` [Example 748, 2-(cyclopropanecarboxamido)-N-(2-fluoro-3-(trifluoromethoxy)benzyl)isonicotinamide]: less than 1000 nM; `CCC(=O)Nc1cc(C(=O)NCc2cccc(OC(F)(F)F)c2F)cc(C)n1` [Example 749, N-(2-fluoro-3-(trifluoromethoxy)benzyl)-2-methyl-6-propionamidoisonicotinamide]: less than 1000 nM.
Take `CC(C)C(=O)Nc1cc(C(=O)NCc2cccc(OC(F)(F)F)c2F)ccn1` [Example 750, N-(2-fluoro-3-(trifluoromethoxy)benzyl)-2-isobutyramidoisonicotinamide]: the concentration for half-maximal inhibition (IC50) at human Nav1.3 channels was less than 1000 nM.
On the same count and under the same terms, next, `Cc1cc(C(=O)NCc2cccc(OC(F)(F)F)c2F)cc(NC(=O)C(C)C)n1` [Example 752, N-(2-fluoro-3-(trifluoromethoxy)benzyl)-2-isobutyramido-6-methylisonicotinamide]: less than 1000 nM.
The same measure, in the same setting: next, `Cc1cc(CNC(=O)c2ccnc(NC(=O)C3CC3)n2)ccc1OCC(F)(F)F` [Example 779, 2-(cyclopropanecarboxamido)-N-(3-methyl-4-(2,2,2-trifluoroethoxy)benzyl)pyrimidine-4-carboxamide]: less than 1000 nM.
Same read-out and setting: the same measure for `O=C(NCc1cnc(OCC(F)F)c(C2CC2)c1)c1ccnc(NC(=O)C2CC2)n1` [Example 918, 2-(cyclopropanecarboxamido)-N-((5-cyclopropyl-6-(2,2-difluoroethoxy)pyridin-3-yl)methyl)pyrimidine-4-carboxamide]: less than 1000 nM.
On to `Cc1cc(C(=O)NCc2cnc(OCC(F)(F)F)c(Cl)c2)cc(NC(=O)CC2CC2)n1` [Example 956, N-((5-chloro-6-(2,2,2-trifluoroethoxy)pyridin-3-yl)methyl)-2-(2-cyclopropylacetamido)-6-methylisonicotinamide], for which, at human Nav1.3 channels, the IC50 is less than 1000 nM.
Same read-out and setting: the same measure for `Cc1cc(C(=O)NCc2cnc(OCC(F)(F)F)cc2C)cc(NC(=O)CC2CC2)n1` [Example 958, 2-(2-cyclopropylacetamido)-6-methyl-N-((4-methyl-6-(2,2,2-trifluoroethoxy)pyridin-3-yl)methyl)isonicotinamide]: less than 1000 nM.
The same measure, in the same setting: next, `COc1nc(OCC(F)(F)F)ccc1CNC(=O)c1cc(C)nc(NC(=O)CC2CC2)c1` [Example 960, 2-(2-cyclopropylacetamido)-N-((2-methoxy-6-(2,2,2-trifluoroethoxy)pyridin-3-yl)methyl)-6-methylisonicotinamide]: less than 1000 nM; `Cc1cc(C(=O)NCc2cccc(C(F)(F)F)c2)cc(NC(=O)CC2CC2)n1` [Example 961, 2-(2-cyclopropylacetamido)-6-methyl-N-(3-(trifluoromethyl)benzyl)isonicotinamide]: less than 1000 nM.
For `CC(=O)Nc1cc(C(=O)NCc2ccc(OC(F)(F)F)c(Cl)c2)ccn1` [Example 967, 2-acetamido-N-(3-chloro-4-(trifluoromethoxy)benzyl)isonicotinamide], the IC50 on human Nav1.3 channels is less than 1000 nM.
On the same count and under the same terms, the same measure for `CCC(=O)Nc1cc(C(=O)NCc2ccc(OC(F)(F)F)c(Cl)c2)ccn1` [Example 968, N-(3-chloro-4-(trifluoromethoxy)benzyl)-2-propionamidoisonicotinamide]: less than 1000 nM.
